Data from ChEMBL document CHEMBL1240362, “Intrapulmonary pharmacokinetics of S-013420, a novel bicyclolide antibacterial, in healthy Japanese subjects” (Antimicrob Agents Chemother, 2010).
Converted amounts (≈) assume the structure as drawn.

Legend:
Assay type in all cases: functional
[1] = system: Streptococcus pneumoniae; assay: Antimicrobial activity against Streptococcus pneumoniae
[2] = system: Staphylococcus aureus; assay: Antimicrobial activity against methicillin susceptible Staphylococcus aureus
[3] = system: Streptococcus pyogenes; assay: Antimicrobial activity against Streptococcus pyogenes
[4] = system: Haemophilus influenzae; assay: Antimicrobial activity against Haemophilus influenzae

| MIC90 [1] [µg/mL] | MIC90 [2] [µg/mL] | MIC90 [3] [µg/mL] | MIC90 ([1]; Streptococcus pneumoniae, read-out: MIC90) [µg/mL] | Compound | MIC90 [4] [µg/mL] |
| --- | --- | --- | --- | --- | --- |
| 1 (≈ 1.34 µM) | 1 (≈ 1.34 µM) | 1 (≈ 1.34 µM) | – | CC[C@H]1OC(=O)[C@H](C)[C@@H](O[C@H]2C[C@@](C)(OC)[C@@H](O)[C@H](C)O2)[C@H](C)[C@@H](O[C@@H]2O[C@H](C)C[C@H](N(C)C)[C@H]2O)[C@](C)(O)C[C@@H](C)CN(C)[C@H](C)[C@@H](O)[C@]1(C)O [AZITHROMYCIN] | – |
| – | 1 (≈ 1.34 µM) | 1 (≈ 1.34 µM) | 1 (≈ 1.34 µM) | CC[C@H]1OC(=O)[C@H](C)[C@@H](O[C@H]2C[C@@](C)(OC)[C@@H](O)[C@H](C)O2)[C@H](C)[C@@H](O[C@@H]2O[C@H](C)C[C@H](N(C)C)[C@H]2O)[C@](C)(OC)C[C@@H](C)C(=O)[C@H](C)[C@@H](O)[C@]1(C)O [CLARITHROMYCIN] | – |
| – | – | – | – | CC[C@H]1OC(=O)[C@H](C)C(=O)[C@H](C)[C@@H](O[C@@H]2O[C@H](C)C[C@H](N(C)C)[C@H]2O)[C@](C)(OC)C[C@@H](C)C(=O)[C@H](C)[C@H]2N(CCCCn3cnc(-c4cccnc4)c3)C(=O)O[C@]12C [TELITHROMYCIN] | 4 (≈ 4.93 µM) |
